Test results taken from US20250375427A1 (Biohaven Therapeutics Ltd., priority 2022, published 2025).

Key:
[1] = Clinical adverse events observed with troriluzole; settings: human, in vivo
Description: In general, mild liver enzymes elevations attributed to troriluzole occur due to enzyme induction and are likely to resolve spontaneously within 12 weeks without any changes in the dose of troriluzole. However, the investigator should evaluate the subject, as appropriate.

glioma = settings: cited from earlier work
64SP stem like cells = settings: combined with radiation; cited from earlier work
[2] = tested on: O^6-methylguanine-DNA-methyltransferase (MGMT) expression; settings: combined with temozolomide (TMZ); cited from earlier work

| Compound | most commonly observed adverse events [1] | concentration of CD4+ T cells in TME (glioma; IF data, after troriluzole treatment) | proliferation of tumor-infiltrating T cells (glioma; troriluzole treatment) | survival (glioma; troriluzole treatment) | survival and T regulatory cells in combination with anti-PD-1 (glioma; with anti-PD-1 immunotherapy, glioma tumor microenvironment (TME)) | sensitivity to radiation (64SP stem like cells) | effects of TMZ [2] |
| --- | --- | --- | --- | --- | --- | --- | --- |
| CN(CC(=O)Nc1nc2ccc(OC(F)(F)F)cc2s1)C(=O)CNC(=O)CN [Troriluzole, troriluzole] | Mild increases in liver enzymes | increased concentration of CD4+ T cells in TME | promoted proliferation of tumor-infiltrating T cells | induced a survival benefit | synergized with anti-PD-1 immunotherapy to further improve survival and reduce T regulatory cells |  |  |
| Nc1nc2ccc(OC(F)(F)F)cc2s1 [Riluzole, riluzole] |  |  |  |  |  | enhances sensitivity to radiation | enhances the effects of TMZ via suppression of O^6-methylguanine-DNA-methyltransferase (MGMT) expression |
